From patent publication US5169850A, “N-(dialkylamino)methylene)-substituted pyrazolo(1,5-a)-pyrimidine-3-carboxamides and N-(dialkylamino)methylene-substituted-4,5-dihydropyrazolo-(1,5-a)-pyrimi dine-3-carboxamides” (American Cyanamid Company, priority 1991, dated 1992)

Experiments:
Hypoxic Survival Test = type: in vivo, Royal Hart mice; conditions: 30 min before hypoxia, survival after 5 min
Procedure: A useful in vivo test that measures how effectively central nervous system-acting drugs enhance survival in an hypoxic environment, presumably by improving the ratio of energy supply to demand is known as the Hypoxic Survival Test. […] Drugs are tested by intraperitoneally injecting groups of mice 30 minutes prior to placing them in hypoxic mixture and measuring survival. The rationale of this test is that drugs which enhance survival under hypoxic conditions without concomitant, depression or sedative side effects, may do so by enhancing energy metabolism, or by preserving normal brain function under conditions of reduced energy metabolism. Given the dependence of the brain on a constant supply of energy, drugs which have this property may have many far-reaching therapeutic indications, including recovery from stroke and closed head injury, as well as reducing the deleterious effects of the aging central nervous system. […]
A separate group of 20 mice is injected intraperitoneally with saline solution (0.01 cc/g of body weight) and processed as described above.
Still another group of 20 mice is injected intraperitoneally with 0.125 mg/kg of physostigmine and processed as described above.

[1] = Conflict procedure (non-conditioned passive avoidance); type: in vivo, Wistar strain rats; conditions: 25 mg/kg oral, 60 min before test
Procedure: Another test used to assess anti-anxiety effects is a non-conditioned passive avoidance procedure described by J. R. Vogel, G. Beer and D. E. Clody, "A Simple and Reliable Conflict Procedure for Testing Antianxiety Agents", Psychopharmacologia, 21, 1-7 (1971). A conflict situation was induced in rats by a modification of this method.
Groups of 8 naive, Wistar strain rats, weighing 200-240 g each, were deprived of water for 48 hours. The test compounds were administered in single or graded, oral doses, suspended in 2 percent starch with […] polyethylene glycol in distilled water and one drop of Polysorbate 80. Control animals received the vehicle alone. At 60 minutes each rat was placed in an individual clear plastic chamber. Tap water was available ad libitum from a nipple located in a black box off the main chamber. A 0.7 milliampere AC shocking current was established between the stainless steel grid floor and the tap. After 20 licks of non-shocked drinking, a 2 second shocking current was administered to the rat. This ratio of 20 licks of non-shocked drinking followed by a 2 second shock was continued for a total of 3 minutes. The number of shocks taken by each rat during the 3 minute interval was recorded and compared to a control group. […]

[2] = system: Brain-Specific Receptors of Rats (3H-benzodiazepine binding); assay: Inhibition of the binding of 3H-benzodiazepine to brain-specific receptors of rats; set-up: species or system rat (male albino, Wistar strain); conditions: 3H-diazepam or 3H-flunitrazepam, rat cortex P2 fraction, pH 7.4, 30 min in ice; test concentration not given
Description: Still another test utilized for the determination of anxiolytic activity is the measurement of the ability of a test compound to inhibit the binding of tritiated benzodiazepines to brain-specific receptors of mammals. A modification of the method described by R. F. Squires, et al, Nature, 266, No. 21:732 (April, 1977) and H. Mosler, et al, Science, 198:849 (1977) was employed.
Male albino rats (Wistar strain, weighing 150-200 g each) were used. The test compounds were solubilized in N,N-dimethylformamide, acetic acid, ethanol or hydrochloric acid.
Whole cortex of rats was homogenized gently in 20 volumes of ice-cold 0.32 M sucrose, centrifuged twice at 1000 g for 10 minutes and then recentrifuged at 30,000 g for 20 minutes to produce a crude P2 -synaptosomal fraction. The P2 -fraction was either: (1) resuspended in twice the original volume in hypotonic 50 mM Tris.HCl(pH 7.4), or (2) resuspended in one-half of the original volume in hypotonic 10 mM Tris.HCL (pH 7.4) and frozen (-20° C.) until time of use. Frozen P2 preparations were thawed and resuspended in four times the original homogenizing volume at time of assay.
The binding assay consisted of 300 l of the P2 -fraction suspension (0.2-0.4 mg protein), 100 l of test drug and 100 l of 3H-diazepam 91.5 nM, final concentration) or 3H-flunitrazepam (1.0 nM, final concentration )which was added to 1.5 l of 50 mM Tris.HCl (pH 7.4). Non-specific binding controls and total binding controls received […] of diazepam ([…] final concentration) and 100 l of deionized water, respectively, in place of the test compound. Incubation for 30 minutes proceeded in ice and was terminated by filtration, under vacuum, through glass fiber filters. The filters were washed twice with 5 ml of ice-cold 50 mM Tris.HCl (pH 7.4) and placed in scintillation vials. After drying at 50°-60° C. for 30 minutes, 10 ml of diluent was added and the radioactivity determined in a scintillation counter.
Inhibition of binding was calculated by the difference between total binding and binding in the presence of test compound, divided by the total, times 100. Physiological activity can be shown by a test compound that inhibits 3H-benzodiazepine binding by 12 percent or more.

[3] = Mean arterial blood pressure in spontaneously hypertensive rats; type: in vivo, spontaneously hypertensive rats of the Okamoto strain; conditions: gavage, 100 mg/kg or less, two doses 24 h apart, measured at 28 h; average MABP of rats 160±1.5
Procedure: Certain of the novel compounds of the present invention are active hypotensive agents at non-toxic doses when administered to mammals. These compounds were tested for hypotensive activity by the method of P. S. Chan and D. W. Poorvin, Clinical and Experimental Hypertension, 1 (6), […] (1979). Male, 16 week old spontaneously hypertensive rats of the Okamoto strain having an average mean arterial blood pressure of 160±1.5 mm of mercury are used in the test. One to three rats are used per test compound. A rat is dosed by gavage with a test compound, suspended in 2 percent pre-boiled starch at a concentration of50 mg/ml, at a dose of 100 mg/kg of body weight or less, with 0.9 percent sodium chloride loading at a dose of 25 ml/kg of body weight. A second identical dose of the test compound, without sodium chloride loading is given 24 hours later. At 28 hours after the initial dose the mean arterial blood pressure is measured by the method of Chan and Poorvin vide supra. The procedure is repeated in a second and third rat when necessary.

## CN(C)C=NC(=O)c1cnn2c1NCC=C2c1cccc(C(F)(F)F)c1 [N-((Dimethylamino)methylene)-4,5-dihydro-7-(3-(trifluoromethyl)phenylpyrazolo(1,5-a)-pyrimidine-3-carboxamide]
Hypoxic Survival Test; 50 mg/kg i.p.
  % Survivors: 75%
Hypoxic Survival Test; 100 mg/kg i.p.
  % Survivors: 57%
[1]
  Result (no. of shocks per 3 min.): 22.9 no. of shocks per 3 min.
[2]
  % Inhibition: 17%
[3]
  MABP/mmHg (no. of rat): 131 mmHg
